Where a SMILES comes first, the peptide text is derived from it.

Usually EC50 stands for the concentration at which the effect is half-maximal.

For one experiment, the system named is Wistar rats. Nature of the experiment: Urine, sodium and potassium outflow after iv injection in rats (metabolic cages, 5 h). The class given is in vivo. Conditions: Wistar rat.
In experiment [1] the target is T1, V2 receptor (AVP-R2) overexpressed in CHO-K1 cells (Homo sapiens, UniProt P30518).
T1 construct: host or cells: CHO-K1
In words: Intracellular cAMP release in AVP-R2 CHO-K1 cells (cAMP Hunter eXpress). The class given is cell-based. Conditions: peptide alone, 30 min at 37°C, chemiluminescent read-out. The method, then: Changes in intracellular cAMP level in response to agonist stimulation of the GPCR receptor was detected with a chemiluminescent cAMP Hunter eXpress Cat.No: # 95-0150E2CP2M kit from DiscoveRx (www.discoverx.com). A standard curve of cAMP (in duplicate) was included in the same plate and used to report data in nM cAMP. […] The values of cAMP were presented as relative light units (RLU) or they were calculated in nM from the standard curve.

T1 sequence (P30518 whole entry): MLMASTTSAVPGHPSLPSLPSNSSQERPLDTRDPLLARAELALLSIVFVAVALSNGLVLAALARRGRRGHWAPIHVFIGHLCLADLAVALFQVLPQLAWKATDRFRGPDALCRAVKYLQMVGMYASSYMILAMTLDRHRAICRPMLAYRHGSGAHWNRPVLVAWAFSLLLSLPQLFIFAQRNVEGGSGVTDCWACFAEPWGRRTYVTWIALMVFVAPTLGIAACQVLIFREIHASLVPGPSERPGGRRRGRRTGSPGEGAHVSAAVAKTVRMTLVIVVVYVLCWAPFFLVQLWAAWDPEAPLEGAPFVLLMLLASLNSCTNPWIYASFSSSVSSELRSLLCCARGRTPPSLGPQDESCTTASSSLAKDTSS
Experimental for Wistar rats: Experiments were performed using 8-week-old Wistar rats (225-250g) purchased from Charles River laboratories (St. Constant, QC, CA). Rats were housed in a standard temperature and light condition with access to water and irradiated standard rodent diet (Harlan Laboratories Inc., IN, USA) ad libitum. At the end of experiments, rats were anaesthetized with sodium pentobarbital (5mg/100 g body wt. i.p.; 20 𝜇mol/100 g body wt.) and blood samples (2mL, EDTA) were collected. Rats were euthanized by cervical decapitation.
Peptides were dissolved at the desired concentration in 0.3 mL of the vehicle and administered as a single bolus in the tail vein.
Both antagonists (OTA, V2A) were administered to rats at the concentration of 10 μmol/kg under normal conditions (0.3 mL iv injection) and with blood volume expansion (5 mL iv injection). Rats (n = 24 per condition) received combination treatment in random order separated by a 2–3 day interval. For both series of experiments, rats were placed in metabolic cages for a period of 5 hours to collect urine for the determination of sodium and potassium levels. Metabolic cages were kept in a bright and quiet room and rats were deprived of food and water during this period.
The concentrations of excreted sodium and potassium were determined by flame spectrometry (iCE 3000 series AA spectrometer; Thermo Fisher Scientific, Cambridge, UK).

In the case of “[d(CH2)5, D-Ile2, Ile4, Tyr-NH29]-AVP [V2A]”, the “effect of antagonist alone on diuresis” value in the experiment with Wistar rats (V2A alone iv, normal volume and blood volume expansion) is “significant diuresis”.

Regarding “[d(CH2)5, Tyr(Me)2, Thr4, Orn8, Tyr-NH29]-vasotocin [OTA]”, in the experiment on Wistar rats (OTA co-administered with OT, normal volume and blood volume expansion (5 mL)), the “effect of antagonist on OT-stimulated diuresis” value was “inhibited OT-stimulated diuresis to control and BVE levels”.

Take `CC[C@H](C)[C@@H]1NC(=O)[C@H](Cc2ccc(O)cc2)NC(=O)[C@@H](N)CSSC[C@@H](C(=O)N2CCC[C@H]2C(=O)N[C@@H](CC(C)C)C(=O)NCC(=O)NCC(=O)N[C@@H](CCCCN)C(=O)N[C@@H](CCCNC(=N)N)C(=O)O)NC(=O)[C@H](CC(N)=O)NC(=O)[C@H](CCC(N)=O)NC1=O` [OT-GKR] (HELM PEPTIDE1{C.Y.I.Q.N.C.P.L.G.G.K.R}$PEPTIDE1,PEPTIDE1,1:R3-6:R3$$$V2.0): the 50% effective concentration (EC50) in experiment [1] was 1100 nM.

(Values after publication PMC6608960 (PLoS ONE, 2019).)
